The results in this text go back to ChEMBL document CHEMBL4052761, “20(R)-Ginsenoside Rg3 protects SH-SY5Y cells against apoptosis induced by oxygen and glucose deprivation/reperfusion” (2017).

Experiment [1] has as its system SH-SY5Y. As to the kind of experiment: Cytoprotection against oxygen-glucose deprivation/reperfusion-induced cell death in human SH-SY5Y cells assessed as increase in Bcl2 m-RNA expression at 100 umol/L pretreated for 24 hrs followed by oxygen-glucose deprivation for 10 hrs and reperfusion for 24 hrs by RT-qPCR analysis. It is filed as functional, cell-based. In general terms: Real-time PCR tracks product formation cycle by cycle.

The subject of experiment [2] is SH-SY5Y. The experiment can be described thus: Cytoprotection against oxygen-glucose deprivation/reperfusion-induced cell death in human SH-SY5Y cells assessed as reduction in LDH leakage at 100 umol/L pretreated for 24 hrs followed by oxygen-glucose deprivation for 10 hrs and reperfusion for 24 hrs. It is filed as functional, cell-based. For orientation: LDH leaks from cells whose membrane has failed.

The subject of experiment [3] is SH-SY5Y. As to the kind of experiment: Cytoprotection against oxygen-glucose deprivation/reperfusion-induced cell death in human SH-SY5Y cells assessed as decrease in Bax m-RNA expression at 100 umol/L pretreated for 24 hrs followed by oxygen-glucose deprivation for 10 hrs and reperfusion for 24 hrs by RT-qPCR analysis. It is filed as functional, cell-based.
Experiment [4] concerns SH-SY5Y. As to the kind of experiment: Cytoprotection against oxygen-glucose deprivation/reperfusion-induced cell death in human SH-SY5Y cells assessed as decrease in cleaved caspase-3 level at 100 umol/L pretreated for 24 hrs followed by oxygen-glucose deprivation for 10 hrs and reperfusion for 24 hrs by Western blot analysis. It is filed as functional, cell-based. In general terms: A western blot detects proteins with antibodies after separation by electrophoresis.

In experiment [5] the test system is SH-SY5Y. As to the kind of experiment: Cytoprotection against oxygen-glucose deprivation/reperfusion-induced cell death in human SH-SY5Y cells assessed as increase in cell viability at 100 umol/L pretreated for 24 hrs followed by oxygen-glucose deprivation for 10 hrs and reperfusion for 24 hrs by MTT assay. It is filed as functional, cell-based.
Experiment [6] deals with SH-SY5Y. As to the kind of experiment: Cytoprotection against oxygen-glucose deprivation/reperfusion-induced cell death in human SH-SY5Y cells assessed as viable cells at 125 umol/L pretreated for 24 hrs followed by oxygen-glucose deprivation for 10 hrs and reperfusion for 24 hrs by annexin V-FITC-propidium iodide staining-based flow cytometry method (reference value: 63.2%). As to conditions: read-out: Activity. It is filed as functional.

Experiment [7] relates to SH-SY5Y. As to the kind of experiment: Cytoprotection against oxygen-glucose deprivation/reperfusion-induced cell death in human SH-SY5Y cells assessed as decrease in Bax m-RNA expression at 125 umol/L pretreated for 24 hrs followed by oxygen-glucose deprivation for 10 hrs and reperfusion for 24 hrs by RT-qPCR analysis. It is filed as functional, cell-based.
Experiment [8] concerns SH-SY5Y. As to the kind of experiment: Cytoprotection against oxygen-glucose deprivation/reperfusion-induced cell death in human SH-SY5Y cells assessed as necrotic cells at 125 umol/L pretreated for 24 hrs followed by oxygen-glucose deprivation for 10 hrs and reperfusion for 24 hrs by annexin V-FITC-propidium iodide staining-based flow cytometry method (reference value: 2.3%). It is filed as functional.

Experiment [9] concerns SH-SY5Y. As to the kind of experiment: Cytoprotection against oxygen-glucose deprivation/reperfusion-induced cell death in human SH-SY5Y cells assessed as late apoptotic cells pretreated for 24 hrs followed by oxygen-glucose deprivation for 10 hrs and reperfusion for 24 hrs by annexin V-FITC-propidium iodide staining-based flow cytometry method (reference value: 10.5%). It is filed as functional.

In experiment [10] the test system is SH-SY5Y. The experiment can be described thus: Cytoprotection against oxygen-glucose deprivation/reperfusion-induced cell death in human SH-SY5Y cells assessed as late apoptotic cells at 125 umol/L pretreated for 24 hrs followed by oxygen-glucose deprivation for 10 hrs and reperfusion for 24 hrs by annexin V-FITC-propidium iodide staining-based flow cytometry method (reference value: 10.5%). It is filed as functional.

Experiment [11] relates to SH-SY5Y. The experiment can be described thus: Cytoprotection against oxygen-glucose deprivation/reperfusion-induced cell death in human SH-SY5Y cells assessed as necrotic cells at 1 umol/L pretreated for 24 hrs followed by oxygen-glucose deprivation for 10 hrs and reperfusion for 24 hrs by annexin V-FITC-propidium iodide staining-based flow cytometry method (reference value: 2.3%). It is filed as functional.

The test system of experiment [12] is SH-SY5Y. As to the kind of experiment: Cytoprotection against oxygen-glucose deprivation/reperfusion-induced cell death in human SH-SY5Y cells assessed as early apoptotic cells at 25 umol/L pretreated for 24 hrs followed by oxygen-glucose deprivation for 10 hrs and reperfusion for 24 hrs by annexin V-FITC-propidium iodide staining-based flow cytometry method (reference value: 24.0%). It is filed as functional.

Experiment [13] relates to SH-SY5Y. As to the kind of experiment: Cytoprotection against oxygen-glucose deprivation/reperfusion-induced cell death in human SH-SY5Y cells assessed as early apoptotic cells pretreated for 24 hrs followed by oxygen-glucose deprivation for 10 hrs and reperfusion for 24 hrs by annexin V-FITC-propidium iodide staining-based flow cytometry method (reference value: 24.0%). It is filed as functional.

Experiment [14] relates to SH-SY5Y. The experiment can be described thus: Cytoprotection against oxygen-glucose deprivation/reperfusion-induced cell death in human SH-SY5Y cells assessed as viable cells at 25 umol/L pretreated for 24 hrs followed by oxygen-glucose deprivation for 10 hrs and reperfusion for 24 hrs by annexin V-FITC-propidium iodide staining-based flow cytometry method (reference value: 63.2%). The note with it: read-out: Activity. It is filed as functional.

For experiment [15], the system named is SH-SY5Y. The experiment can be described thus: Cytoprotection against oxygen-glucose deprivation/reperfusion-induced cell death in human SH-SY5Y cells assessed as decrease in Bax m-RNA expression pretreated for 24 hrs followed by oxygen-glucose deprivation for 10 hrs and reperfusion for 24 hrs by RT-qPCR analysis. It is filed as functional, cell-based.
The test system of experiment [16] is SH-SY5Y. The experiment can be described thus: Cytoprotection against oxygen-glucose deprivation/reperfusion-induced cell death in human SH-SY5Y cells assessed as increase in Bcl2 m-RNA expression pretreated for 24 hrs followed by oxygen-glucose deprivation for 10 hrs and reperfusion for 24 hrs by RT-qPCR analysis. It is filed as functional, cell-based.
Experiment [17] relates to SH-SY5Y. The experiment can be described thus: Cytoprotection against oxygen-glucose deprivation/reperfusion-induced cell death in human SH-SY5Y cells assessed as late apoptotic cells at 5 umol/L pretreated for 24 hrs followed by oxygen-glucose deprivation for 10 hrs and reperfusion for 24 hrs by annexin V-FITC-propidium iodide staining-based flow cytometry method (reference value: 10.5%). It is filed as functional.

In experiment [18] the test system is SH-SY5Y. The experiment can be described thus: Cytoprotection against oxygen-glucose deprivation/reperfusion-induced cell death in human SH-SY5Y cells assessed as necrotic cells pretreated for 24 hrs followed by oxygen-glucose deprivation for 10 hrs and reperfusion for 24 hrs by annexin V-FITC-propidium iodide staining-based flow cytometry method (reference value: 2.3%). It is filed as functional.

The test system of experiment [19] is SH-SY5Y. As to the kind of experiment: Cytoprotection against oxygen-glucose deprivation/reperfusion-induced cell death in human SH-SY5Y cells assessed as increase in cell viability at 25 to 125 umol/L pretreated for 24 hrs followed by oxygen-glucose deprivation for 10 hrs and reperfusion for 24 hrs by MTT assay. It is filed as functional, cell-based.
Experiment [20] has as its system SH-SY5Y. The experiment can be described thus: Cytoprotection against oxygen-glucose deprivation/reperfusion-induced cell death in human SH-SY5Y cells assessed as decrease in Bax protein level at 5 to 125 umol/L pretreated for 24 hrs followed by oxygen-glucose deprivation for 10 hrs and reperfusion for 24 hrs by Western blot analysis. It is filed as functional, cell-based.

Experiment [21] deals with SH-SY5Y. The experiment can be described thus: Cytoprotection against oxygen-glucose deprivation/reperfusion-induced cell death in human SH-SY5Y cells assessed as viable cells at 5 umol/L pretreated for 24 hrs followed by oxygen-glucose deprivation for 10 hrs and reperfusion for 24 hrs by annexin V-FITC-propidium iodide staining-based flow cytometry method (reference value: 63.2%). As to conditions: read-out: Activity. It is filed as functional.

Experiment [22] deals with SH-SY5Y. The experiment can be described thus: Cytoprotection against oxygen-glucose deprivation/reperfusion-induced cell death in human SH-SY5Y cells assessed as viable cells pretreated for 24 hrs followed by oxygen-glucose deprivation for 10 hrs and reperfusion for 24 hrs by annexin V-FITC-propidium iodide staining-based flow cytometry method (reference value: 63.2%). It is filed as functional.

The subject of experiment [23] is SH-SY5Y. The experiment can be described thus: Cytoprotection against oxygen-glucose deprivation/reperfusion-induced cell death in human SH-SY5Y cells assessed as viable cells at 1 umol/L pretreated for 24 hrs followed by oxygen-glucose deprivation for 10 hrs and reperfusion for 24 hrs by annexin V-FITC-propidium iodide staining-based flow cytometry method (reference value: 63.2%). The note with it: read-out: Activity. It is filed as functional.

Experiment [24] has as its system SH-SY5Y. As to the kind of experiment: Cytoprotection against oxygen-glucose deprivation/reperfusion-induced cell death in human SH-SY5Y cells assessed as increase in Bcl2 m-RNA expression at 125 umol/L pretreated for 24 hrs followed by oxygen-glucose deprivation for 10 hrs and reperfusion for 24 hrs by RT-qPCR analysis. It is filed as functional, cell-based.
Experiment [25] relates to SH-SY5Y. As to the kind of experiment: Cytoprotection against oxygen-glucose deprivation/reperfusion-induced cell death in human SH-SY5Y cells assessed as early apoptotic cells at 1 umol/L pretreated for 24 hrs followed by oxygen-glucose deprivation for 10 hrs and reperfusion for 24 hrs by annexin V-FITC-propidium iodide staining-based flow cytometry method (reference value: 24.0%). It is filed as functional.

For experiment [26], the system named is SH-SY5Y. As to the kind of experiment: Cytoprotection against oxygen-glucose deprivation/reperfusion-induced cell death in human SH-SY5Y cells assessed as necrotic cells at 5 umol/L pretreated for 24 hrs followed by oxygen-glucose deprivation for 10 hrs and reperfusion for 24 hrs by annexin V-FITC-propidium iodide staining-based flow cytometry method (reference value: 2.3%). It is filed as functional.

Experiment [27] relates to SH-SY5Y. As to the kind of experiment: Cytoprotection against oxygen-glucose deprivation/reperfusion-induced cell death in human SH-SY5Y cells assessed as increase in Bcl-2 protein level at 5 to 125 umol/L pretreated for 24 hrs followed by oxygen-glucose deprivation for 10 hrs and reperfusion for 24 hrs by Western blot analysis. It is filed as functional, cell-based.
In experiment [28] the test system is SH-SY5Y. The experiment can be described thus: Cytoprotection against oxygen-glucose deprivation/reperfusion-induced cell death in human SH-SY5Y cells assessed as decrease in cleaved caspase-3 level at 25 to 125 umol/L pretreated for 24 hrs followed by oxygen-glucose deprivation for 10 hrs and reperfusion for 24 hrs by Western blot analysis. It is filed as functional, cell-based.

In experiment [29] the test system is SH-SY5Y. The experiment can be described thus: Cytoprotection against oxygen-glucose deprivation/reperfusion-induced cell death in human SH-SY5Y cells assessed as necrotic cells at 25 umol/L pretreated for 24 hrs followed by oxygen-glucose deprivation for 10 hrs and reperfusion for 24 hrs by annexin V-FITC-propidium iodide staining-based flow cytometry method (reference value: 2.3%). It is filed as functional.

For experiment [30], the system named is SH-SY5Y. The experiment can be described thus: Cytoprotection against oxygen-glucose deprivation/reperfusion-induced cell death in human SH-SY5Y cells assessed as late apoptotic cells at 25 umol/L pretreated for 24 hrs followed by oxygen-glucose deprivation for 10 hrs and reperfusion for 24 hrs by annexin V-FITC-propidium iodide staining-based flow cytometry method (reference value: 10.5%). It is filed as functional.

The test system of experiment [31] is SH-SY5Y. The experiment can be described thus: Cytoprotection against oxygen-glucose deprivation/reperfusion-induced cell death in human SH-SY5Y cells assessed as early apoptotic cells at 5 umol/L pretreated for 24 hrs followed by oxygen-glucose deprivation for 10 hrs and reperfusion for 24 hrs by annexin V-FITC-propidium iodide staining-based flow cytometry method (reference value: 24.0%). It is filed as functional.

For experiment [32], the system named is SH-SY5Y. As to the kind of experiment: Cytoprotection against oxygen-glucose deprivation/reperfusion-induced cell death in human SH-SY5Y cells assessed as reduction in LDH leakage at 1 to 5 umol/L pretreated for 24 hrs followed by oxygen-glucose deprivation for 10 hrs and reperfusion for 24 hrs. It is filed as functional, cell-based.
Experiment [33] deals with SH-SY5Y. The experiment can be described thus: Cytoprotection against oxygen-glucose deprivation/reperfusion-induced cell death in human SH-SY5Y cells assessed as late apoptotic cells at 1 umol/L pretreated for 24 hrs followed by oxygen-glucose deprivation for 10 hrs and reperfusion for 24 hrs by annexin V-FITC-propidium iodide staining-based flow cytometry method (reference value: 10.5%). It is filed as functional.

Experiment [34] relates to SH-SY5Y. As to the kind of experiment: Cytoprotection against oxygen-glucose deprivation/reperfusion-induced cell death in human SH-SY5Y cells assessed as early apoptotic cells at 125 umol/L pretreated for 24 hrs followed by oxygen-glucose deprivation for 10 hrs and reperfusion for 24 hrs by annexin V-FITC-propidium iodide staining-based flow cytometry method (reference value: 24.0%). It is filed as functional.

The test system of experiment [35] is SH-SY5Y. As to the kind of experiment: Cytoprotection against oxygen-glucose deprivation/reperfusion-induced cell death in human SH-SY5Y cells assessed as reduction in LDH leakage at 25 to 125 umol/L pretreated for 24 hrs followed by oxygen-glucose deprivation for 10 hrs and reperfusion for 24 hrs. It is filed as functional, cell-based.

Calls of active or inactive are those of the source. No cut-off for these calls is given here.

Turning to `COCCOC(=O)C1=C(C)NC(C)=C(C(=O)OC(C)C)C1c1cccc([N+](=O)[O-])c1` (stereo not given), the outcome in [1], in [2], in experiment [3], in experiment [4] and in [5] was Active.

As for `CC(C)=CCC[C@](C)(O)[C@H]1CC[C@]2(C)[C@@H]1[C@H](O)C[C@@H]1[C@@]3(C)CC[C@H](O[C@@H]4O[C@H](CO)[C@@H](O)[C@H](O)[C@H]4O[C@@H]4O[C@H](CO)[C@@H](O)[C@H](O)[C@H]4O)C(C)(C)[C@@H]3CC[C@]12C`, the viability at 125 µM in experiment [6] was 80.4%. In addition, the outcome in experiment [7], in [19], in experiment [20], in experiment [24], in experiment [27] and in experiment [28] was Active. Besides, in experiment [35], the outcome was Active. Also, the Activity worked out at 9.8% in experiment [8]; 2.8% in experiment [9]; 4.8% in experiment [10]; 2.7% in experiment [11]; 7.9% in [12]; 8% in experiment [13]. In addition, the Activity entry in experiment [15] was “Dose-dependent effect”; in [16], “Dose-dependent effect”; in [17], 11.3%; in experiment [18], 8.9%; in experiment [22], 80.4%; in [25], 17%. Further, the Activity in experiment [26] is on record as 5.8%; in experiment [29], 8.9%; in experiment [30] it was 5.7%; in experiment [31] it was 13%; in [33], 10.3%; in experiment [34], 5%. The viability at 25 µM in experiment [14] worked out at 77.5%. Moreover, the viability at 5 µM in experiment [21] worked out at 70%. The viability at 1 µM in [23] was determined as 69.9%. The result in experiment [32] was inactive.
